# Reference: ChEMBL document CHEMBL2413059, “Novel quinoxaline 1,4-di-N-oxide derivatives as new potential antichagasic agents” (Eur J Med Chem, 2013)
# Assays:
# [1] = test system: Trypanosoma cruzi; test: Antichagasic activity against epimastigote form of Trypanosoma cruzi Tulahuen 2 assessed as parasite growth inhibition at 25 uM measured on day 5 relative to control; type: functional; conditions: Tulahuen 2, 120 h, read-out: GI
# [2] = test system: J774; test: Cytotoxicity against mouse J774 cells assessed as cell viability after 48 hrs by MTT assay; type: cell-based; conditions: J774, 48 h
# [3] = test system: Salmonella typhimurium; test: Mutagenicity in Salmonella typhimurium TA98 at 0.06 to 5 ug/plate after 1 hr by Ames test in absence of S9 fraction; type: toxicity, organism-based; conditions: salmonella enterica subsp. enterica serovar typhimurium
# [4] = test system: Trypanosoma cruzi; test: Antichagasic activity against epimastigote form of Trypanosoma cruzi Tulahuen 2 assessed as parasite growth inhibition measured on day 5; type: functional, organism-based; conditions: Tulahuen 2, 120 h
# [5] = test system: Salmonella typhimurium; test: Mutagenicity in Salmonella typhimurium TA98 at 0.06 to 5 ug/plate after 1 hr by Ames test in presence of S9 fraction; type: toxicity, organism-based; conditions: salmonella enterica subsp. enterica serovar typhimurium, s9, 1 h
# [6] = Selectivity index, ratio of IC50 for mouse J774 cells to IC50 for epimastigote form of Trypanosoma cruzi Tulahuen 2; type: toxicity, cell-based; conditions: read-out: Ratio IC50
# [7] = test system: Salmonella typhimurium; test: Mutagenicity in Salmonella typhimurium TA98 at 0.06 to 12.5 ug/plate after 1 hr by Ames test in absence of S9 fraction; type: toxicity, organism-based; conditions: salmonella enterica subsp. enterica serovar typhimurium
# [8] = test system: Salmonella typhimurium; test: Mutagenicity in Salmonella typhimurium TA98 at 0.06 to 12.5 ug/plate after 1 hr by Ames test in presence of S9 fraction; type: toxicity, organism-based; conditions: salmonella enterica subsp. enterica serovar typhimurium, s9, 1 h
# [9] = test system: Salmonella typhimurium; test: Mutagenicity in Salmonella typhimurium TA98 at 1.2 X 10^-3 to 5 ug/plate after 1 hr by Ames test in absence of S9 fraction; type: toxicity, organism-based; conditions: salmonella enterica subsp. enterica serovar typhimurium
# [10] = test system: Salmonella typhimurium; test: Mutagenicity in Salmonella typhimurium TA98 at 1.2 X 10^-3 to 5 ug/plate after 1 hr by Ames test in presence of S9 fraction; type: toxicity, organism-based; conditions: salmonella enterica subsp. enterica serovar typhimurium, s9, 1 h
# [11] = test system: Salmonella typhimurium; test: Mutagenicity in Salmonella typhimurium TA98 at 0.61 to 50 ug/plate after 1 hr by Ames test in presence of S9 fraction; type: toxicity, organism-based; conditions: salmonella enterica subsp. enterica serovar typhimurium, s9, 1 h
# [12] = test system: Salmonella typhimurium; test: Mutagenicity in Salmonella typhimurium TA98 at 0.61 to 50 ug/plate after 1 hr by Ames test in absence of S9 fraction; type: toxicity, organism-based; conditions: salmonella enterica subsp. enterica serovar typhimurium
# [13] = test system: Salmonella typhimurium; test: Mutagenicity in Salmonella typhimurium TA98 at 0.012 to 1 ug/plate after 1 hr by Ames test in absence of S9 fraction; type: toxicity, organism-based; conditions: salmonella enterica subsp. enterica serovar typhimurium
# [14] = test system: Salmonella typhimurium; test: Mutagenicity in Salmonella typhimurium TA98 at 0.012 to 1 ug/plate after 1 hr by Ames test in presence of S9 fraction; type: toxicity, organism-based; conditions: salmonella enterica subsp. enterica serovar typhimurium, s9, 1 h
# [15] = test system: Salmonella typhimurium; test: Mutagenicity in Salmonella typhimurium TA98 at 0.3 to 25 ug/plate after 1 hr by Ames test in absence of S9 fraction; type: toxicity, organism-based; conditions: salmonella enterica subsp. enterica serovar typhimurium
# [16] = test system: Salmonella typhimurium; test: Mutagenicity in Salmonella typhimurium TA98 at 0.3 to 25 ug/plate after 1 hr by Ames test in presence of S9 fraction; type: toxicity, organism-based; conditions: salmonella enterica subsp. enterica serovar typhimurium, s9, 1 h
# [17] = test system: Trypanosoma cruzi; test: Ratio of nifurtimox IC50 to compound IC50 for epimastigote form of Trypanosoma cruzi Tulahuen 2; type: functional
SMILES,IC50 [4],inhibition of growth at 25 µM [1],IC50 [2],Activity [3],Activity [5],selectivity ratio [6],further results
COC(=O)c1c(C(F)(F)F)[n+]([O-])c2ccccc2[n+]1[O-],2.6 µM,100%,19 µM,Toxic,Toxic,7.3,–
CCOC(=O)c1c(C(F)(F)F)[n+]([O-])c2ccc(Cl)cc2[n+]1[O-],1.8 µM,100%,–,Toxic,Non-toxic,–,–
CCOC(=O)c1c(C(F)(F)F)[n+]([O-])c2ccccc2[n+]1[O-],4 µM,100%,4 µM,Toxic,Non-toxic,1,–
CC1CS(=O)(=O)CCN1/N=C/c1ccc([N+](=O)[O-])o1 (configuration not stated) [NIFURTIMOX],–,100%,316 µM,–,–,41,–
CCOC(=O)c1c(C(F)(F)F)[n+]([O-])c2cc(Cl)c(Cl)cc2[n+]1[O-],2.9 µM,100%,–,Non-toxic,Non-toxic,–,–
CCOC(=O)c1c(C(F)(F)F)[n+]([O-])c2ccc(F)cc2[n+]1[O-],3.3 µM,100%,0.5 µM,Toxic,Non-toxic,0.1,–
COC(=O)c1c(C(F)(F)F)[n+]([O-])c2ccc(C(F)(F)F)cc2[n+]1[O-],5 µM,100%,4 µM,Non-toxic,Non-toxic,0.8,–
CCOC(=O)c1c(C(F)(F)F)[n+]([O-])c2ccc(OC)cc2[n+]1[O-],4.8 µM,100%,6 µM,–,–,1.2,Activity [15]: Toxic; Activity [16]: Toxic
CCOC(=O)c1c(C(F)(F)F)[n+]([O-])c2ccc(C)cc2[n+]1[O-],4.8 µM,100%,7 µM,–,–,1.4,Activity [15]: Toxic; Activity [16]: Non-toxic
CCOC(=O)c1c(C(F)(F)F)[n+]([O-])c2ccc(C(F)(F)F)cc2[n+]1[O-],1 µM,100%,4.2 µM,–,–,4.2,Activity [7]: Non-toxic; Activity [8]: Non-toxic

# Further lines, with some results ahead:
IC50 [4],SMILES,inhibition of growth at 25 µM [1],IC50 [2],Activity [3],Activity [5],selectivity ratio [6],further results
7.6 µM,CCOC(=O)c1c(C(F)(F)F)[n+]([O-])c2cc(C)c(C)cc2[n+]1[O-],87.5%,4 µM,–,–,0.5,Activity [7]: Toxic; Activity [8]: Non-toxic
1.8 µM,COC(=O)c1c(C(F)(F)F)[n+]([O-])c2ccc(Cl)cc2[n+]1[O-],100%,–,–,–,–,Activity [9]: Toxic; Activity [10]: Non-toxic
5 µM,COC(=O)c1c(C(F)(F)F)[n+]([O-])c2cc(C)c(C)cc2[n+]1[O-],91.6%,4 µM,–,–,0.8,Activity [11]: Toxic; Activity [12]: Toxic
10.8 µM,COC(=O)c1c(C(F)(F)F)[n+]([O-])c2cc(Cl)c(Cl)cc2[n+]1[O-],100%,0.5 µM,–,–,< 0.1,Activity [13]: Non-toxic; Activity [14]: Non-toxic
1.5 µM,COC(=O)c1c(C(F)(F)F)[n+]([O-])c2cc(F)c(F)cc2[n+]1[O-],100%,–,Toxic,Non-toxic,–,–
3.5 µM,COC(=O)c1c(C(F)(F)F)[n+]([O-])c2ccc(F)cc2[n+]1[O-],100%,2.5 µM,–,–,0.7,Activity [15]: Toxic; Activity [16]: Non-toxic
13.7 µM,COC(=O)c1c(C(F)(F)F)[n+]([O-])c2ccc(C)cc2[n+]1[O-],96.1%,4 µM,Toxic,Toxic,0.3,–
4.6 µM,COC(=O)c1c(C(F)(F)F)[n+]([O-])c2ccc(OC)cc2[n+]1[O-],86.6%,–,–,–,–,Activity [15]: Toxic; Activity [16]: Toxic
0.4 µM,CCOC(=O)c1c(C(F)(F)F)[n+]([O-])c2cc(F)c(F)cc2[n+]1[O-],100%,4 µM,Toxic,Non-toxic,10,Ratio IC50 [17]: 18
